System: CVD (CHD or stroke)
Test: CARE: SNP by pravastatin treatment interaction, logistic regression (synergy index), CVD endpoint
Assay type: in vivo, human
Details: CARE
Source text: CARE was a secondary prevention trial and WOSCOPS was a primary prevention trial.
The CHD endpoint was defined in the analyses herein of CARE as a composite endpoint of fatal CHD, definite non-fatal MI, or revascularization, and was defined in the analyses herein of WOSCOPS as a composite endpoint of death from CHD, nonfatal MI, or revascularization. In both the CARE and WOSCOPS analyses herein, the CVD endpoint was defined as a composite endpoint of CHD or stroke. […] Revascularization, which can include percutaneous transluminal coronary angioplasty (PTCA), stent placement, and coronary artery bypass graft (CABG), are medical interventions that indicate the presence of CHD.
Cohort and case-only study designs were used to identify SNPs associated with response to statin treatment.
For each SNP, a logistic regression model having treatment status as the dependent variable and SNP as the independent predictor variable was performed, with terms for age, sex and race included in the model as covariates. The anti-log of the regression coefficient corresponding to the SNP is an estimate of the synergy index (SI) (Davis et al., “Imputing gene-treatment interactions when the genotype distribution is unknown using case-only and putative placebo analyses-a new method for the Genetics of Hypertension Associated Treatment (GenHAT) study”, Statistics in Medicine 23: (2004), pages 2413-2427). The SI is a ratio of odds ratios: for example in the CARE and WOSCOPS studies, the SI represents the factor by which the odds-ratio of statin treatment, compared with placebo, among major homozygous individuals is multiplied by in order to obtain the odds-ratio of treatment vs. placebo among heterozygous individuals; and multiplied by a second time to obtain the odds-ratio of treatment vs. placebo in minor homozygous individuals. […] In a randomized clinical trial, genotype and treatment are independent by design.

SMILES: CC[C@H](C)C(=O)O[C@H]1C[C@H](O)C=C2C=C[C@H](C)[C@H](CC[C@@H](O)C[C@@H](O)CC(=O)O)[C@H]21 [Pravastatin, pravastatin]
- OR (synergy index, SNP x pravastatin treatment interaction) (rs152707 allele A, model ADD, Imputed): 0.684
- OR (synergy index, SNP x pravastatin treatment interaction) (rs152712 allele C, model ADD, Genotyped): 0.6783
- OR (SNP x pravastatin interaction) (rs208026 allele A, DOM model, Genotyped): 1.457
- OR (SNP x pravastatin interaction) (rs208029 allele T, DOM model, Imputed): 1.41
- OR (SNP x pravastatin interaction) (rs208757 allele G, DOM model, Imputed): 1.423
- OR (SNP x pravastatin interaction) (rs229775 allele A, REC model, Imputed): 0.3933
- OR (SNP x pravastatin interaction) (rs229815 allele T, REC model, Imputed): 0.4053
- OR (SNP x pravastatin interaction) (rs229829 allele C, REC model, Imputed): 0.5066
- OR (SNP x pravastatin interaction) (rs229831 allele A, REC model, Imputed): 0.3945
- OR (SNP x pravastatin interaction) (rs238252 allele G, ADD model, Imputed): 1.66
- OR (SNP x pravastatin interaction) (rs238252 allele G, DOM model, Imputed): 1.848
- OR (synergy index, SNP x pravastatin treatment interaction) (rs1444741 allele A, model DOM, Imputed): 0.6595
- OR (synergy index, SNP x pravastatin treatment interaction) (rs1449916 allele C, model DOM, Imputed): 0.5892
- OR (synergy index, SNP x pravastatin treatment interaction) (rs1459523 allele A, model ADD, Imputed): 1.366
- OR (synergy index, SNP x pravastatin treatment interaction) (rs1476714 allele A, model DOM, Imputed): 0.6618
- OR (synergy index, SNP x pravastatin treatment interaction) (rs1486723 allele C, model REC, Imputed): 0.4458
- OR (synergy index, SNP x pravastatin treatment interaction) (rs1495375 allele A, model ADD, Imputed): 0.741
- OR (synergy index, SNP x pravastatin treatment interaction) (rs1495375 allele A, model DOM, Imputed): 0.6085
- OR (synergy index, SNP x pravastatin treatment interaction) (rs1495381 allele T, model REC, Imputed): 1.776
- OR (synergy index, SNP x pravastatin treatment interaction) (rs1498061 allele C, model ADD, Imputed): 0.4939
- OR (synergy index, SNP x pravastatin treatment interaction) (rs1498992 allele G, model DOM, Imputed): 0.5981
- OR (synergy index, SNP x pravastatin treatment interaction) (rs1499001 allele T, model DOM, Imputed): 0.5667
- OR (synergy index, SNP x pravastatin treatment interaction) (rs1512988 allele A, model ADD, Imputed): 0.7274
- OR (synergy index, SNP x pravastatin treatment interaction) (rs1512988 allele A, model DOM, Imputed): 0.6077
- OR (synergy index, SNP x pravastatin treatment interaction) (rs1512989 allele T, model ADD, Imputed): 0.7274
- OR (synergy index, SNP x pravastatin treatment interaction) (rs1512989 allele T, model DOM, Imputed): 0.6077
- OR (synergy index, SNP x pravastatin treatment interaction) (rs1512991 allele T, model ADD, Imputed): 0.7286
- OR (synergy index, SNP x pravastatin treatment interaction) (rs1512991 allele T, model DOM, Imputed): 0.6184
- OR (synergy index, SNP x pravastatin treatment interaction) (rs1524306 allele C, model ADD, Imputed): 1.366
- OR (synergy index, SNP x pravastatin treatment interaction) (rs1524310 allele G, model ADD, Imputed): 1.366
- OR (synergy index, SNP x pravastatin treatment interaction) (rs1527059 allele A, model DOM, Imputed): 0.5689
- OR (synergy index, SNP x pravastatin treatment interaction) (rs1535866 allele G, model DOM, Imputed): 1.391
- OR (synergy index, SNP x pravastatin treatment interaction) (rs1567740 allele T, model ADD, Imputed): 0.7274
- OR (synergy index, SNP x pravastatin treatment interaction) (rs1567740 allele T, model DOM, Imputed): 0.6032
- OR (synergy index, SNP x pravastatin treatment interaction) (rs1572573 allele A, model DOM, Imputed): 1.748
- OR (synergy index, SNP x pravastatin treatment interaction) (rs1577497 allele C, model REC, Imputed): 0.4912
- OR (synergy index, SNP x pravastatin treatment interaction) (rs1581514 allele T, model ADD, Imputed): 1.353
- OR (synergy index, SNP x pravastatin treatment interaction) (rs1582321 allele T, model DOM, Imputed): 0.5814
- OR (synergy index, SNP x pravastatin treatment interaction) (rs1582322 allele A, model DOM, Imputed): 0.5859
- OR (synergy index, SNP x pravastatin treatment interaction) (rs1582323 allele A, model DOM, Imputed): 0.5825
- OR (synergy index, SNP x pravastatin treatment interaction) (rs1592485 allele C, model DOM, Imputed): 0.5835
- OR (synergy index, SNP x pravastatin treatment interaction) (rs1600954 allele T, model ADD, Imputed): 1.379
- OR (synergy index, SNP x pravastatin treatment interaction) (rs1705261 allele A, model REC, Imputed): 1.775
- OR (synergy index, SNP x pravastatin treatment interaction) (rs1832222 allele G, model DOM, Imputed): 1.612
- OR (synergy index, SNP x pravastatin treatment interaction) (rs1861327 allele G, model DOM, Imputed): 0.5814
- OR (synergy index, SNP x pravastatin treatment interaction) (rs1868581 allele G, model ADD, Imputed): 1.366
- OR (synergy index, SNP x pravastatin treatment interaction) (rs1874313 allele A, model ADD, Imputed): 0.7419
- OR (synergy index, SNP x pravastatin treatment interaction) (rs1874313 allele A, model DOM, Imputed): 0.615
- OR (SNP x pravastatin interaction) (rs1876409 allele C, DOM model, Imputed): 0.6151
- OR (SNP x pravastatin interaction) (rs1913201 allele G, ADD model, Imputed): 0.7218
- OR (SNP x pravastatin interaction) (rs1913201 allele G, DOM model, Imputed): 0.6464
- OR (SNP x pravastatin interaction) (rs1936871 allele G, DOM model, Genotyped): 0.571
- OR (SNP x pravastatin interaction) (rs1961157 allele T, REC model, Imputed): 0.6068
- OR (SNP x pravastatin interaction) (rs1987179 allele T, ADD model, Imputed): 0.7138
- OR (SNP x pravastatin interaction) (rs1987179 allele T, DOM model, Imputed): 0.6634
- OR (SNP x pravastatin interaction) (rs1990023 allele T, DOM model, Imputed): 0.6462
- OR (SNP x pravastatin interaction) (rs1995025 allele C, DOM model, Imputed): 1.608
- OR (SNP x pravastatin interaction) (rs2016194 allele G, DOM model, Imputed): 0.6626
- OR (SNP x pravastatin interaction) (rs2023651 allele T, ADD model, Imputed): 0.682
- OR (SNP x pravastatin interaction) (rs2024902 allele A, ADD model, Imputed): 1.998
- OR (SNP x pravastatin interaction) (rs2024902 allele A, DOM model, Imputed): 2.076
- OR (SNP x pravastatin interaction) (rs2025107 allele A, DOM model, Imputed): 1.856
- OR (SNP x pravastatin interaction) (rs2025108 allele T, DOM model, Imputed): 1.856
- OR (SNP x pravastatin interaction) (rs2052428 allele C, DOM model, Imputed): 0.5903
- OR (SNP x pravastatin interaction) (rs2053230 allele C, ADD model, Imputed): 0.5414
- OR (SNP x pravastatin interaction) (rs2062448 allele T, DOM model, Imputed): 0.5462
- OR (SNP x pravastatin interaction) (rs2063420 allele C, REC model, Imputed): 1.755
- OR (SNP x pravastatin interaction) (rs2063591 allele C, ADD model, Imputed): 0.7519
- OR (SNP x pravastatin interaction) (rs2063591 allele C, DOM model, Imputed): 0.6237
- OR (SNP x pravastatin interaction) (rs2095586 allele A, DOM model, Imputed): 1.655
- OR (SNP x pravastatin interaction) (rs2095606 allele A, DOM model, Imputed): 0.5466
- OR (SNP x pravastatin interaction) (rs2102374 allele A, ADD model, Imputed): 0.6269
- OR (SNP x pravastatin interaction) (rs2102374 allele A, DOM model, Imputed): 0.5989
- OR (SNP x pravastatin interaction) (rs2108426 allele C, DOM model, Imputed): 0.6626
- OR (SNP x pravastatin interaction) (rs2110664 allele A, DOM model, Imputed): 1.429
